Reference: patent publication US20240116985A1, “STAPLED PEPTIDES AND METHODS THEREOF” (priority 2020, published 2024)
Where two headings read alike, the source gives them in different places.

How the values were obtained:
CHI Log D procedure = type: physicochemical; conditions: for chromatographic logD: pH 7.4, CHI Log D; for CHI Log D: pH 7.4
[1] = biological target: T1, full-length beta-Catenin (Uniprot ID P35222) (Homo sapiens, UniProt P35222); assay: Fluorescence polarization IC50 (beta-catenin / 5FAM-TCF4 10-53 competition); type: binding; conditions: fluorescence polarization
T1 construct: 10 nM full-length beta-Catenin (Uniprot ID P35222)
T1 sequence (P35222 1-781): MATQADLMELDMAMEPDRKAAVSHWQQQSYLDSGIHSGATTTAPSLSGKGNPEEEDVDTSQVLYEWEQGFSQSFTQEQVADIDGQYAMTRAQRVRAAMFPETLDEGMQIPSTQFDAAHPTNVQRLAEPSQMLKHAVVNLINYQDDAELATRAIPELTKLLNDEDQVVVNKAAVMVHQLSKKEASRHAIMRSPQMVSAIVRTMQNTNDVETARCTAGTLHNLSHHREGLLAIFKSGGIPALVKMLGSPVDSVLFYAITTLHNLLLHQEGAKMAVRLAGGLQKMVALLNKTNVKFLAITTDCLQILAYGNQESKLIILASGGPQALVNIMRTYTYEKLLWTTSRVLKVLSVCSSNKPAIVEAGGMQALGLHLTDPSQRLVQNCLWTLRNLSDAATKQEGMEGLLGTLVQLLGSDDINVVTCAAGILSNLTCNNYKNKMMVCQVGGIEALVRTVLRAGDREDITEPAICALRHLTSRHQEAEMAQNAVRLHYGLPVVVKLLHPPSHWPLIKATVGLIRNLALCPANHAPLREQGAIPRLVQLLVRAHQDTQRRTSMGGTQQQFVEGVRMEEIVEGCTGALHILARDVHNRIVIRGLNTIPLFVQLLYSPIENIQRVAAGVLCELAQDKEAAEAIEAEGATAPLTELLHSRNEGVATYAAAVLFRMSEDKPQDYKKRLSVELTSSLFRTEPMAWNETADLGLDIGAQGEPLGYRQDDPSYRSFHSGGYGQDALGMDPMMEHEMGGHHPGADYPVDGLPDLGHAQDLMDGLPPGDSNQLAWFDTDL

[2] = beta-catenin, read-out: FP EC50

| chromatographic logD (CHI Log D procedure) | IC50 ([1]; read-out: beta-Catenin FP IC50) | CHI Log D (CHI Log D procedure) | IC50 [1, 2] | Compound |
| --- | --- | --- | --- | --- |
| 2.52 | 2500 nM |  |  | CC(=O)N1CCC[C@]12CC=CCCCC1(CCCC=CCCCCCC[C@@](C)(C(=O)N[C@@H](Cc3cccc(F)c3)C(=O)N[C@@H](Cc3csc4ccccc34)C(=O)N[C@@H](CCC(N)=O)C(N)=O)NC(=O)[C@H](CCC(N)=O)NC(=O)[C@H](Cc3ccccc3)NC(=O)[C@H](C)NC(=O)[C@H](C)NC(=O)[C@H](Cc3c[nH]cn3)NC(=O)[C@H](CC(=O)O)NC1=O)NC(=O)[C@H](C)NC(=O)[C@H](CC(=O)O)NC2=O (stereo partly drawn) [I-399, Ac-PL3-Asp-Ala-B5-Asp-His-Ala-Ala-Phe-Gln-S8-3FF-BztA-Gln-NH2] |
| 2.28 | 134 nM |  |  | CC(=O)N1CCC[C@]12CC=CCCCC1(CCCC=CCCCCCC[C@@](C)(C(=O)N[C@@H](Cc3cccc(F)c3)C(=O)N[C@@H](Cc3csc4ccccc34)C(=O)N[C@@H](CCC(N)=O)C(N)=O)NC(=O)[C@H](CCC(N)=O)NC(=O)[C@H](Cc3cccs3)NC(=O)[C@H](C)NC(=O)[C@H](C)NC(=O)[C@H](CCC(=O)O)NC(=O)[C@H](CC(=O)O)NC1=O)NC(=O)[C@H](C)NC(=O)[C@H](CC(=O)O)NC2=O (stereo partly drawn) [I-401, Ac-PL3-Asp-Ala-B5-Asp-Glu-Ala-Ala-2Thi-Gln-S8-3FF-BztA-Gln-NH2] |
| 2.4 | 1850 nM |  |  | CC(=O)N1CCC[C@]12CC=CCCCC1(CCCC=CCCCCCC[C@@](C)(C(=O)N[C@@H](Cc3cccc(F)c3)C(=O)N[C@@H](Cc3csc4ccccc34)C(=O)N[C@@H](CCC(N)=O)C(N)=O)NC(=O)[C@H](CCC(N)=O)NC(=O)[C@H](Cc3cccc(C)c3)NC(=O)[C@H](C)NC(=O)[C@H](C)NC(=O)[C@H](CN(CC(=O)O)CC(F)(F)F)NC(=O)[C@H](CC(=O)O)NC1=O)NC(=O)[C@H](C)NC(=O)[C@H](CC(=O)O)NC2=O (stereo partly drawn) [I-404, Ac-PL3-Asp-Ala-B5-Asp-TfeGA-Ala-Ala-3MeF-Gln-S8-3FF-BztA-Gln-NH2] |
| 1.72 | 3820 nM |  |  | CC(=O)N1CCC[C@]12CC=CCCCC1(CCCC=CCOC(=O)N(C)CCC[C@@](C)(C(=O)N[C@@H](Cc3cccc(F)c3)C(=O)N[C@@H](Cc3csc4ccccc34)C(=O)N[C@@H](CCC(N)=O)C(N)=O)NC(=O)[C@H](CCC(N)=O)NC(=O)[C@H](Cc3cccc(C)c3)NC(=O)[C@H](C)NC(=O)[C@H](C)NC(=O)[C@H](CN(CC(=O)O)CC(F)(F)F)NC(=O)[C@H](CC(=O)O)NC1=O)NC(=O)[C@H](C)NC(=O)[C@H](CC(=O)O)NC2=O (stereo partly drawn) [I-405, Ac-PL3-Asp-Ala-B5-Asp-TfeGA-Ala-Ala-3MeF-Gln-SeN-3FF-BztA-Gln-NH2] |

The next lines start with the compound.

| Compound | chromatographic logD (CHI Log D procedure) | IC50 ([1]; read-out: beta-Catenin FP IC50) | CHI Log D (CHI Log D procedure) | IC50 [1, 2] |
| --- | --- | --- | --- | --- |
| CC(=O)N1CCC[C@]12CC=CCCCC1(CCCC=CCCCCCC[C@@](C)(C(=O)N[C@@H](Cc3cc(F)cc(F)c3)C(=O)N[C@@H](Cc3csc4ccccc34)C(=O)N[C@@H](CCC(N)=O)C(N)=O)NC(=O)[C@H](C(C)C)NC(=O)[C@H](Cc3ccccc3)NC(=O)[C@H](C)NC(=O)[C@H](C)NC(=O)[C@H](CCC(=O)O)NC(=O)[C@H](CC(=O)O)NC1=O)NC(=O)[C@H](C)NC(=O)[C@H](CC(=O)O)NC2=O (stereo partly drawn) [I-394, Ac-PL3-Asp-Ala-B5-Asp-Glu-Ala-Ala-Phe-Val-S8-35FF-BztA-Gln-NH2] | 3.86 | 5000 nM |  |  |
| CC(=O)N1CCC[C@]12CC=CCCCC1(CCCC=CCCCCCC[C@@](C)(C(=O)N[C@@H](Cc3cccc(C)c3)C(=O)N[C@@H](Cc3csc4ccccc34)C(=O)N[C@@H](CCC(N)=O)C(N)=O)NC(=O)[C@H](C(C)C)NC(=O)[C@H](Cc3ccccc3)NC(=O)[C@H](C)NC(=O)[C@H](C)NC(=O)[C@H](CCC(=O)O)NC(=O)[C@H](CC(=O)O)NC1=O)NC(=O)[C@H](C)NC(=O)[C@H](CC(=O)O)NC2=O (stereo partly drawn) [I-395, Ac-PL3-Asp-Ala-B5-Asp-Glu-Ala-Ala-Phe-Val-S8-3MeF-BztA-Gln-NH2] | 4.07 | 5000 nM |  |  |
| CC(=O)N1CCC[C@]12CC=CCCCC1(CCCC=CCCCCCC[C@@](C)(C(=O)N[C@@H](Cc3cccc(F)c3)C(=O)N[C@@H](Cc3csc4ccccc34)C(=O)N[C@@H](CCC(N)=O)C(N)=O)NC(=O)[C@H](C(C)C)NC(=O)[C@H](Cc3ccccc3)NC(=O)[C@H](C)NC(=O)[C@H](C)NC(=O)[C@H](Cc3c[nH]cn3)NC(=O)[C@H](CC(=O)O)NC1=O)NC(=O)[C@H](C)NC(=O)[C@H](CC(=O)O)NC2=O (stereo partly drawn) [I-396, Ac-PL3-Asp-Ala-B5-Asp-His-Ala-Ala-Phe-Val-S8-3FF-BztA-Gln-NH2] |  | 3430 nM | 2.819 | 3430 nM |
| CC(=O)N1CCC[C@]12CC=CCCCC1(CCCC=CCCCCCC[C@@](C)(C(=O)N[C@@H](Cc3cccc(F)c3)C(=O)N[C@@H](Cc3csc4ccccc34)C(=O)N[C@@H](CCC(N)=O)C(N)=O)NC(=O)[C@H](C(C)C)NC(=O)[C@H](Cc3ccccc3)NC(=O)[C@H](C)NC(=O)[C@H](C)NC(=O)[C@H](Cc3c[nH]cn3)NC(=O)[C@H](CC(=O)O)NC1=O)NC(=O)[C@H](C)NC(=O)[C@H](CC(=O)O)NC2=O (stereo partly drawn) [I-397, Ac-PL3-Asp-Ala-B5-Asp-His-Ala-Ala-Phe-Val-S8-3FF-BztA-Gln-NH2] |  | 2230 nM | 2.828 | 2230 nM |
| CC(=O)N1CCC[C@]12CC=CCCCC1(CCCC=CCOC(=O)N(C)CCC[C@@](C)(C(=O)N[C@@H](Cc3cccc(F)c3)C(=O)N[C@@H](Cc3csc4ccccc34)C(=O)N[C@@H](CCC(N)=O)C(N)=O)NC(=O)[C@H](CCC(N)=O)NC(=O)[C@H](Cc3ccccc3)NC(=O)[C@H](C)NC(=O)[C@H](C)NC(=O)[C@H](Cc3c[nH]cn3)NC(=O)[C@H](CC(=O)O)NC1=O)NC(=O)[C@H](C)NC(=O)[C@H](CC(=O)O)NC2=O (stereo partly drawn) [I-400, Ac-PL3-Asp-Ala-B5-Asp-His-Ala-Ala-Phe-Gln-SeN-3FF-BztA-Gln-NH2] | 1.92 | 3590 nM |  |  |
| CC(=O)N1CCC[C@]12CC=CCCCC1(CCCC=CCCCCCC[C@@](C)(C(=O)N[C@@H](Cc3cccc(F)c3)C(=O)N[C@@H](Cc3csc4ccccc34)C(=O)N[C@@H](CCC(N)=O)C(N)=O)NC(=O)[C@H](C(C)C)NC(=O)[C@H](Cc3ccccc3)NC(=O)[C@H](C)NC(=O)[C@H](C)NC(=O)[C@H](Cc3cccs3)NC(=O)[C@H](CC(=O)O)NC1=O)NC(=O)[C@H](C)NC(=O)[C@H](CC(=O)O)NC2=O (stereo partly drawn) [I-402, Ac-PL3-Asp-Ala-B5-Asp-2Thi-Ala-Ala-Phe-Val-S8-3FF-BztA-Gln-NH2] | 3.39 | 5000 nM |  |  |
| CC(=O)N1CCC[C@]12CC=CCCCC1(CCCC=CCCCCCC[C@@](C)(C(=O)N[C@@H](Cc3cccc(F)c3)C(=O)N[C@@H](Cc3csc4ccccc34)C(=O)N[C@@H](CCC(N)=O)C(N)=O)NC(=O)[C@H](C(C)C)NC(=O)[C@H](Cc3ccccc3)NC(=O)[C@H](C)NC(=O)[C@H](C)NC(=O)[C@H](Cc3cn(C)cn3)NC(=O)[C@H](CC(=O)O)NC1=O)NC(=O)[C@H](C)NC(=O)[C@H](CC(=O)O)NC2=O (stereo partly drawn) [I-403, Ac-PL3-Asp-Ala-B5-Asp-1meH-Ala-Ala-Phe-Val-S8-3FF-BztA-Gln-NH2] | 2.87 | 2130 nM |  |  |
| CC[C@H](C)[C@@H]1NC(=O)[C@H](CC(=O)O)NC(=O)[C@]2(CC=CCCCC3(CCCC=CCCCCCC[C@@](C)(C(=O)N[C@@H](Cc4cccc(F)c4)C(=O)N[C@@H](Cc4csc5ccccc45)C(=O)N[C@@H](CCC(N)=O)C(N)=O)NC(=O)[C@H](CCC(N)=O)NC(=O)[C@H](Cc4cccs4)NC(=O)[C@H](C)NC(=O)[C@H](C)NC(=O)[C@H](CCC(=O)O)NC(=O)[C@H](CC(=O)O)NC3=O)NC1=O)CCCN2C(C)=O (stereo partly drawn) [I-412, Ac-PL3-Asp-Ile-B5-Asp-Glu-Ala-Ala-2Thi-Gln-S8-3FF-BztA-Gln-NH2] | 2.65 | 92 nM |  |  |
